The structures appear in SMILES notation.

Drawing on US6583161B1, “Benzenesulfonamides and benzamides as therapeutic agents” (Tularik Inc., priority 1998, dated 2003), this text covers IC50 and melting point for one compound.

One data set relates to HeLa cells. Kind of data set: Inhibition of HeLa cell growth (Alamar Blue uptake). The data set is classed as cell-based. The settings on record: Homo sapiens; concentration required to inhibit by 50% the uptake of Alamar Blue by HeLa cell cultures. The source says:
(§1) Compounds can be evaluated for their ability to inhibit in vitro the growth of HeLa cells, an immortal cell line derived from a human cervical carcinoma commonly used to evaluate the cytotoxicity of potential therapeutic agents. The following data reflect the cytotoxicity of selected examples of the present invention. The values given represent the concentration of test compound required to inhibit by 50% the uptake of Alamar Blue (Biosource International, Camarillo, Calif.) by HeLa cell cultures, which correlates directly with the overall levels of cellular metabolism in the culture, and is generally accepted as an appropriate marker of cell growth. The test was conducted according to the method of Ahmed et al. (J. Immunol. Methods 1994, 170, 211). […] Compounds were similarly evaluated for cell growth inhibition using MCF-7 cells and MCF-7/ADR cells.

The subject of the next data set is MCF-7 cells. In words: Cell growth inhibition using MCF-7 cells. The settings on record: Homo sapiens, MCF7. In kind it is cell-based.
Excerpt: as §1

Another data set has as its system MCF-7/ADR cells. In words: Cell growth inhibition using MCF-7/ADR cells. The settings on record: Homo sapiens, NCI/ADR-RES. In kind it is cell-based.
Excerpt: as §1

Compound `COc1ccc(NS(=O)(=O)c2cc(OC)c(OC)c(OC)c2)cc1O` [Example 1, 1-[(3-Hydroxy-4-methoxyphenyl)aminosulfonyl]-3,4,5-trimethoxybenzene] yielded a melting point of 145 to 146 °C. Besides, the midpoint of inhibition in the data set on HeLa cells, the IC50, lay at 0.15 µM. The compound also yielded a concentration for half-maximal inhibition (IC50) in the data set with MCF-7 cells of 0.15 µM. Also, the IC50 with MCF-7/ADR cells is 0.5 µM.
